Experimental data taken from the NIST ThermoML archive (doi:10.1016/j.jct.2005.07.019).

Assay: mn = molality of the nth substance listed, in mol/kg
Conditions: 350 kPa, Liquid, Extra sensitive DSC

N[C@@H](CO)C(=O)O [L-serine] + O
apparent molar heat capacity [J/K/mol]
Conditions | m1 = 0.015 | m1 = 0.0302 | m1 = 0.05 | m1 = 0.08 | m1 = 0.1249 | m1 = 0.2501 | m1 = 0.3717 | m1 = 0.7002 | m1 = 1.001
278.15 K | 58.9 | 59.2 | 58.9 | 60.7 | 62.4 | 67.93 | 72.64 | 84.65 | 94.04
283.15 K | 78.9 | 79.3 | 79.2 | 80.6 | 82.1 | 86.36 | 90.3 | 99.99 | 108.37
288.15 K | 94.8 | 95.4 | 95.2 | 96.5 | 97.7 | 101.28 | 104.58 | 112.69 | 120.13
293.15 K | 108 | 108.7 | 108.4 | 109.5 | 110.5 | 113.56 | 116.4 | 123.33 | 129.97
298.15 K | 118.7 | 119.4 | 119.2 | 120.1 | 120.9 | 123.63 | 126.11 | 132.2 | 138.25
303.15 K | 127.9 | 128.6 | 128.4 | 129.2 | 129.9 | 132.24 | 134.43 | 139.82 | 145.45
308.15 K | 135.6 | 136.4 | 136.2 | 136.9 | 137.5 | 139.63 | 141.58 | 146.36 | 151.62
313.15 K | 142.6 | 143.1 | 142.9 | 143.5 | 144.1 | 145.98 | 147.77 | 152.15 | 157.1
318.15 K | 148.7 | 148.9 | 148.6 | 149.2 | 149.7 | 151.4 | 153.04 | 157.06 | 161.73
323.15 K | 153.9 | 154.1 | 153.8 | 154.2 | 154.6 | 156.2 | 157.74 | 161.47 | 165.95
328.15 K | 158.6 | 158.6 | 158.3 | 158.7 | 159 | 160.4 | 161.86 | 165.32 | 169.63
333.15 K | 163.4 | 163.1 | 162.2 | 162.6 | 162.9 | 164.2 | 165.59 | 168.83 | 173.01
338.15 K | 167.3 | 166.8 | 165.8 | 166.2 | 166.4 | 167.6 | 168.91 | 172 | 176.07
343.15 K | 170.4 | 169.9 | 168.8 | 169 | 169.3 | 170.5 | 171.75 | 174.71 | 178.65
348.15 K | 173.7 | 172.4 | 171.4 | 171.6 | 171.9 | 173.1 | 174.28 | 177.14 | 181.02
353.15 K | 176 | 174.9 | 173.8 | 174 | 174.3 | 175.4 | 176.6 | 179.33 | 183.15
358.15 K | 178 | 176.9 | 176 | 176 | 176.4 | 177.4 | 178.6 | 181.28 | 185.03
363.15 K | 179 | 178.4 | 177.6 | 177.7 | 178.1 | 179.1 | 180.3 | 182.94 | 186.63
368.15 K | 181 | 179.7 | 178.9 | 179 | 179.6 | 180.6 | 181.8 | 184.38 | 188
373.15 K | 181 | 180.9 | 180.2 | 180.1 | 180.7 | 181.8 | 183 | 185.63 | 189.22
378.15 K | 181 | 181.7 | 181 | 180.7 | 181.7 | 182.9 | 183.9 | 186.55 | 190.12
383.15 K | 182 | 182.2 | 181.8 | 181.3 | 182.4 | 183.8 | 184.8 | 187.46 | 190.98
388.15 K | 183 | 182.6 | 182.7 | 181.4 | 183 | 184.4 | 185.4 | 188.07 | 191.6
393.15 K | 183 | 182.6 | 183.3 | 181.2 | 183.4 | 184.8 | 185.7 | 188.6 | 192.04
